Measured values as given in patent publication US20060014673A1 (priority 1998, published 2006).
Like-named read-outs stand apart in the source and are kept apart here.

Columns and labels:
[1] = system: Primary cultures of neonatal rat cortex; assay type: cell-based
[2] = system: Primary cultures of neonatal rat cortex; assay type: cell-based; remark: listed apart in the source

Nc1ccncc1 [4-AP, 4-aminopyridine]
effect on intracellular calcium [1]: significant effect | potency in non-depolarized compared with depolarized cultures [1]: slightly less potent | effect on intracellular calcium ([2]; depolarized conditions (aconitine), substance alone): induces an increase in intracellular calcium

dendrotoxin
effect on intracellular calcium [2]: caused an increase in intracellular calcium
